Measurements reported in publication PMC6752957, “Beta-defensins and analogs in Helicobacter pylori infections: mRNA expression levels, DNA methylation, and antibacterial activity” (PLoS ONE, 2019).
No end group written: not given here.

Columns and labels:
[1] = cited from earlier work; for antimicrobial activity at high NaCl concentrations: background statement of the introduction
Source text: Defensins exert their killing activity against bacteria, yeasts, fungi, and viruses. The activity of antimicrobial peptides involves the initial electrostatic binding to the cell membrane of microorganisms and subsequent incorporation into the membrane. This antimicrobial action induces damage or even destruction of the microbial cell membrane via pore formation. […] We previously reported the killing activity of β-defensin ...

[2] = test system: H. pylori (ATCC49503 (tox+ strain 60190)); assay: CFU assay of antimicrobial activity against H. pylori, with salt dependence; type: cell-based, Helicobacter pylori
Method: CFU assays of the antimicrobial activities of HBDs against H. pylori (ATCC49503 (tox+ strain 60190); American Type Culture Collection, ATCC) were performed. The toxin-producing H. pylori strain was revived from frozen stocks by seeding on a blood agar plate (7% horse blood) at 37°C for 3 days in microaerophilic conditions (O2:10% and […]) generated with Anaeropack Campylo (Mitsubishi Gas Chemicals Corp.). Bacteria harvested from the plates were suspended in 200 ml of brain heart infusion broth (10% fetal calf serum) and grown in liquid culture at 37°C for three days while shaking in a monitored microaerophilic atmosphere.
H. pylori was incubated with HBDs for two hours at 37°C. Two concentrations of peptides (2.5 μM and 12.5 μM) were used. For the salt dependence assay, 0, 50, 100, and 200 mM concentrations of NaCl were added in the incubation buffer as previously described. Each assay was done in triplicate.
Antimicrobial activity of HBD2-4 and the analogs 3N and 3NI was evaluated on H. pylori, cultured on HP agar for 4 d after a […] pre-incubation with or without chemically synthesized HBD-2-4 and 3N and 3NI analogs. The two peptide sequences are derived from HBD1 and HBD3. 3N analog is the HBD3 sequence without the N-terminal domain that HBD1 lacks.
We evaluated two concentrations of every peptide (2.5 and 12.5 μM) and 4 NaCl concentrations (0, 50, 100, and 200 mM). Antibacterial activity of 3NI against H. pylori started at concentrations as low as 2.5 μM in the presence of at least 200 mM NaCl.

Substance	antimicrobial activity at high NaCl concentrations [1]	other results
ELDRIC^1GYGTARC^2RKK-C^3RSQEYRIGRC^4PNTYAC^5C^6LRK (bicyclic or more) [HBD4, human beta-defensin 4, purchased from Peptides International]	reduced by high NaCl concentrations	
GIGDPVTC^1LKSGAIC^2HPVFC^3PRRYKQIGTC^4GLPGTKC^5C^6KKP (bicyclic or more) [HBD2, human beta-defensin 2, purchased from Peptides International]	reduced by high NaCl concentrations	
GIINTLQKYYC^1RVRGGRC^2AVLSC^3LPKEEQIGKC^4STRGRKC^5C^6RRKK (bicyclic or more) [HBD3, human beta-defensin 3, purchased from Peptides International]	still active up to 150 mM NaCl concentrations	
HBD1: human beta-defensin 1, constitutively synthesized; only mentioned in background, not tested here (DHYNCVSSGGQCLYSACPIFTKIQGTCYRGKAKCCK; not fully specified; ends and bridges not checked; UniProt P60022 33-68, looked up)	reduced by high NaCl concentrations	
KYYC^1RVRGGRC^2AVLSC^3PIFTKIQGTC^4STRGRKC^5C^6RRKK (bicyclic or more) [3NI]		antibacterial activity against H. pylori in contrast to wild-type peptides ([2]; 2.5 and 12.5 μM, 0, 50, 100 and 200 mM NaCl (Fig 4 title)): increased antibacterial activity; concentration at which antibacterial activity against H. pylori started ([2]; in the presence of at least 200 mM NaCl, CFU assay, peptides tested at 2.5 and 12.5 μM, triplicate): 2.5 µM; resistance of killing activity to high NaCl concentrations ([1]; earlier work of the authors): resistant to high NaCl concentrations
QKYYC^1RVRGGRC^2AVLSC^3LPKEEQIGKC^4STRGRKC^5C^6RRKK (bicyclic or more) [3N]		antibacterial activity against H. pylori at 12.5 μM ([2]; 12.5 μM peptide, 0, 50, 100 and 200 mM NaCl, 3 independent experiments (Fig 4)): little antibacterial effect
